In BindingDB's records for patent US20230399314 (Wuhan Humanwell Innovative Drug Research and Development …, 2023):

Molecular target: 5'-nucleotidase (Homo sapiens, UniProt P21589)
Assay: In Vitro Inhibitory Activity of Compound to Recombinant Human CD73 Enzyme
Experimental: Human-CD73 (Novoprotein; C446) was diluted with Tris-MgCl2 buffer to form a stock solution (3×), which was placed in a 96-well plate according to 20 μL/well to obtain a final concentration of 0.1 μg/mL. The compound was diluted with Tris-MgCl2 buffer to form a stock solution (3×) of an appropriate concentration gradient, the compound solution was added to the above 96-well plate according to 20 μL/well and uniformly mixed with the Human-CD73 solution, and the mixture was incubated at the room temperature for 30 min. Meanwhile, a positive reference group (without the compound) and a negative reference group (without CD73) were set. AMP (Sigma; A1752-5G) was diluted with Tris-MgCl2 buffer to form a stock solution (3×), which was added to the above 96-well plate according to 20 μL/well to obtain a final concentration of 100 μM, and the mixture was uniformly mixed and incubated at 37° C. for 60 min; ATP (Sigma; A7699-1G) was diluted with Tris-MgCl2 buffer to form a stock solution (7×), which was added to the above 96-well plate according to 10 μL/well to obtain a final concentration of 100 μM, and the mixture was uniformly mixed, incubated for 5 min, and tested by using an ATP-GLO kit (Promega; G7573).

Chain of 5'-nucleotidase (P21589 whole entry): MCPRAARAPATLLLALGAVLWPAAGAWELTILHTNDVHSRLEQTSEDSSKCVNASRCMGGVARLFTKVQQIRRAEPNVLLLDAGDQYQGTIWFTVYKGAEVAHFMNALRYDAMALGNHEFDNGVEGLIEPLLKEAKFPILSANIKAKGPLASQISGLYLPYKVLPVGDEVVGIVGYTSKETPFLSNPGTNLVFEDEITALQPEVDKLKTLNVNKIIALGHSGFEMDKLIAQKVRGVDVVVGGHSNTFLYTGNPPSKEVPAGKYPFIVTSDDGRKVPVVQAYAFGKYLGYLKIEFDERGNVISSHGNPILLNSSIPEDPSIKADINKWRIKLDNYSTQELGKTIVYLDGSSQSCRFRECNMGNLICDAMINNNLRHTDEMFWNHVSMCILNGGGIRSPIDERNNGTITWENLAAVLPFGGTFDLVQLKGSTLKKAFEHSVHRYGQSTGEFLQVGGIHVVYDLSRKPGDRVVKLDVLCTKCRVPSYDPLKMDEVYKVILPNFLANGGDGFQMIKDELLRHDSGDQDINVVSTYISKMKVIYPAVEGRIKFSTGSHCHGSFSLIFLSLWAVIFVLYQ

Row | SMILES | IC50
1 | O=c1[nH]cc(-c2cc([C@@H]3C[C@H]3C(F)(F)F)c(Cl)nn2)c(=O)[nH]1 (relative stereo) [US20230399314, Compound 2] | 23.2 nM
2 | O=c1[nH]cc(-c2cc([C@H]3C[C@@H]3C(F)(F)F)c(Cl)nn2)c(=O)[nH]1 [US20230399314, Compound 3] | 11.6 nM
3 | O=c1[nH]cc(-c2cc([C@H]3C[C@@H]3CF)c(Cl)nn2)c(=O)[nH]1 [US20230399314, Compound 9] | 4.59 nM
